Reference: publication PMC7617969, “Carboxylic Acid Bioisosteres Boost Nurr1 Agonist Selectivity” (Journal of medicinal chemistry, 2025)

Tests used:
[1] = target: T1, Nurr1 LBD homodimer (Homo sapiens, UniProt P43354); test: Nurr1 homodimerization assay (HTRF); assay type: biochemical; conditions: Tb3+-cryptate labeled Nurr1 LBD and sGFP labeled Nurr1 LBD
T1 construct: Biotinylated recombinant Nurr1 LBD protein and sGFP-Nurr1 LBD protein (FRET acceptor) were expressed and purified as described previously[28]; sGFP-Nurr1 LBD protein (FRET acceptor) were expressed and purified as described previously[28]; made in house
T1 sequence (P43354 360-595 limits assumed): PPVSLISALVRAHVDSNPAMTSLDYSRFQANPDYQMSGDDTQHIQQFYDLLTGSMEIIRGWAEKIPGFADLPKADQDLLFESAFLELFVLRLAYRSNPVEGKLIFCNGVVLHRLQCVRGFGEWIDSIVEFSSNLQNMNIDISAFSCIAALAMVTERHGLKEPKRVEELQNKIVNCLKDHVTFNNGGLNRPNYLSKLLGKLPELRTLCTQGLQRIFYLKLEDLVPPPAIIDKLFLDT
Method: Modulation of Nurr1 LBD homodimerization by 32 was studied in a homogenous time-resolved fluorescence resonance energy transfer (HTRF) based assay. Biotinylated recombinant Nurr1 LBD protein and sGFP-Nurr1 LBD protein (FRET acceptor) were expressed and purified as described previously. […] Free sGFP was added to keep the total GFP content stable at 0.5 μM. Assay solutions were prepared in HTRF assay buffer (25 mM HEPES pH 7.5, 10% (m/v) glycerol, 5 mM DTT) supplemented with 0.1% (w/v) CHAPS as well as 1% DMSO with 32 at fixed concentrations or DMSO alone as negative control (apo). The FRET donor complex formed from biotinylated Nurr1 LBD (final concentration 0.188 nM) and Tb-SA (0.375 nM) was kept constant while the concentration of sGFP-labeled protein was varied. Samples were equilibrated at RT for 2 h before fluorescence intensities (FI) after excitation at 340 nm were recorded at 520 nm for sGFP acceptor fluorescence and 620 nm for Tb-SA donor fluorescence on a Tecan SPARK plate reader (Tecan Group Ltd.). FI520 nm was divided by FI620 nm and multiplied with 10,000 to give a dimensionless HTRF signal.

[2] = target: T2, PXR (Homo sapiens, UniProt O75469); test: Gal4 hybrid reporter gene assay, selectivity panel; assay type: cell-based; conditions: 1 µM; relative activation compared to reference agonists
T2 construct: expressed in transfected cells; host or cells: HEK293T
T2 sequence (O75469 146-433): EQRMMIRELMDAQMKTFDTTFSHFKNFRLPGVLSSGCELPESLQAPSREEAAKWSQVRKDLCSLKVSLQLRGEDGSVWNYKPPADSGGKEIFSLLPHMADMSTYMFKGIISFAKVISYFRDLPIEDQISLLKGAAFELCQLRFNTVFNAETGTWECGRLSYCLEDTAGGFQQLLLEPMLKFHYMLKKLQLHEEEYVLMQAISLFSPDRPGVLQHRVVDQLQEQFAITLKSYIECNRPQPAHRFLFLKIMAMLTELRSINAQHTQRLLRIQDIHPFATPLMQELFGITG
Method: (§1) NR modulation was determined in Gal4 hybrid reporter gene assays in HEK293T cells (German Collection of Microorganisms and Cell Culture GmbH, DSMZ) using pFR-Luc (Stratagene, La Jolla, CA, USA; reporter), pRL-SV40 (Promega, Madison, WI, USA; internal control) and pFA-CMV-hNR-LBD[47],[48] plasmids coding for the hinge region and ligand binding domain of the canonical isoform of the respective NR. Cells were cultured in Dulbecco’s modified Eagle’s medium (DMEM), high glucose supplemented with 10% fetal calf serum (FCS), sodium pyruvate (1 mM), penicillin (100 U/mL), and streptomycin (100 μg/mL) at 37°C and 5% CO2 and seeded in 96-well plates (3×10^4 cells/well). After 24 h, medium was changed to Opti-MEM without supplements and cells were transiently transfected using Lipofectamine LTX reagent (Invitrogen, Carlsbad, CA, USA) according to the manufacturer’s protocol. Five hours after transfection, cells were incubated with the test compounds in Opti-MEM supplemented with penicillin (100 U/mL), streptomycin (100 μg/mL) and 0.1% DMSO for 16 h before luciferase activity was measured using the Dual-Glo Luciferase Assay System (Promega) according to the manufacturer’s protocol on a Tecan Spark luminometer (Tecan Deutschland GmbH, Crailsheim, Germany). Firefly luminescence was divided by Renilla luminescence and multiplied by 1000 resulting in relative light units (RLU) to normalize for transfection efficiency and cell growth. Fold activation was obtained by dividing the mean RLU of test compound by the mean RLU of the untreated control. All samples were tested in at least three biologically independent experiments in duplicates. For dose-response curve fitting and calculation of EC50 values, the equation “[Agonist] vs. response -- Variable slope (four parameters)” was used in GraphPad Prism (version 7.00, GraphPad Software, La Jolla, CA, USA).

[3] = target: T3, CAR (Homo sapiens, UniProt Q14994); test: Gal4 hybrid reporter gene assay, selectivity panel; assay type: cell-based; conditions: 1 µM; relative activation compared to reference agonists
T3 construct: expressed in transfected cells; host or cells: HEK293T
T3 sequence (Q14994 109-352 limits assumed): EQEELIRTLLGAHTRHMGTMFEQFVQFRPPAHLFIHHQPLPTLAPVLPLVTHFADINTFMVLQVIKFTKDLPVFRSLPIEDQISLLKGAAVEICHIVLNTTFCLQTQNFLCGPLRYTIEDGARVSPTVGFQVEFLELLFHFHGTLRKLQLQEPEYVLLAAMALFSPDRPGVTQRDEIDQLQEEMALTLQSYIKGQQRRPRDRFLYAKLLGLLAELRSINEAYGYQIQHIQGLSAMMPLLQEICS
Method: as §1

[4] = target: T4, VDR (Homo sapiens, UniProt P11473); test: Gal4 hybrid reporter gene assay, selectivity panel; assay type: cell-based; conditions: 1 µM; relative activation compared to reference agonists
T4 construct: expressed in transfected cells; host or cells: HEK293T
T4 sequence (P11473 127-423 limits assumed): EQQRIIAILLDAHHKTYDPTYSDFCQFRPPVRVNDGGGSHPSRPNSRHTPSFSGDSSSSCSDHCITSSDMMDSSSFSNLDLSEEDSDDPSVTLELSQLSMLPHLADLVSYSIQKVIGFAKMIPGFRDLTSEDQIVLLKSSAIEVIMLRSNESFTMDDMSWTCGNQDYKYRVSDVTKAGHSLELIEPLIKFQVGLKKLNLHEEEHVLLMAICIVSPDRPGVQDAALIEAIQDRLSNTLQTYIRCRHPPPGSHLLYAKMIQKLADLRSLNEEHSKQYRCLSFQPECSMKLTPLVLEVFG
Method: as §1

[5] = target: T5, FXR (Homo sapiens, UniProt Q96RI1); test: Gal4 hybrid reporter gene assay, selectivity panel; assay type: cell-based; conditions: 1 µM; relative activation compared to reference agonists
T5 construct: expressed in transfected cells; host or cells: HEK293T
T5 sequence (Q96RI1 262-486 limits assumed): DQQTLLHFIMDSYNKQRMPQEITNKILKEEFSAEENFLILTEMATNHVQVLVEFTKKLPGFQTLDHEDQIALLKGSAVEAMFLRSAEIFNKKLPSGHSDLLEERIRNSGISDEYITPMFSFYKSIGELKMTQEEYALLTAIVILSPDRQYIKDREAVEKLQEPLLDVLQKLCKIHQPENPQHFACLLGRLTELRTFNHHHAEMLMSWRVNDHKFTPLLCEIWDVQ
Method: as §1

Compound: COc1cccc(-c2ccc(NC(=O)C3=C(c4nn[nH]n4)CCC3)c(F)c2)c1 [compound 32, N-{3-Fluoro-3’-methoxy-[1,1'-biphenyl]-4-yl}-2-(2H-tetrazol-5-yl)cyclopent-1-ene-1-carboxamide]
- impact on Nurr1 dimer formation [1]: robustly diminished Nurr1 dimer formation
- activity on PXR [2]: no activity
- activity on CAR [3]: no activity
- activity on VDR [4]: no activity
- activity on FXR [5]: no activity
